Experimental data taken from US20080255206A1, “Rxr Agonists and Antagonists, Alone or in Combination with Ppar Ligands, in the Treatment of Metabolic and Cardiovascular Diseases” (priority 2005, published 2008).

Experiments:
[1] = test system: c-Jun mRNA expression; experiment: Semi chronic inflammation of mouse ears, c-Jun mRNA (northern blot); format: in vivo, C57BL/6 mice; conditions: TPA 0.005% + test compound 0.05%
Experimental: (§1) […] mice of the C57BL/6 strain are used. Inflammation is induced on mouse ears with either AtRA, 9-cis RA or TPA by topical application. Inflammation is measured objectively by determination of the activity of myeloperoxidase (MPO) being directly correlated to the infiltration of polymorphonuclear white blood cells and by the determination of mRNA expression of c-jun, a protein implicated in the AP-1 transduction pathway according to known methods, see e.g. P. L. Stanley et al., Skin Pharmacol. 4, 262-271 (1991) (MPO assay), N. Basset-Sequin et al., J. Invest. Dermatol. 94, 418-422 (1990), F. J. Rauscher et al., Cell 52, 471-480 […], P. Sassone-Corn et al., Nature 326, 507-510 (1987), and M. Pfahl, Endocr. Rev. 14, 651-658, 1993, which are incorporated by reference regarding the experimental method.
(§2) The anti-inflammatory effect of topical RXR antagonists is tested by determination of myeloperoxidase activity in % of vehicle controls. The effect of the RXR antagonist compound 15 is also compared with the well known anti-inflammatory effect of the two corticosteroids, clobetasol dipropionate and betamethasone propionate. For induction of inflammation, AtRA and TPA are applied topically to the skin and the administration of the test compounds, the RXR antagonist compound 15 and the two corticosteroids are given in the following order, according to the schedule, described in: Skin Pharmacol 1991; 4 (4): 262-271, Stanley P L. et.al.: RA or TPA is administered on days 0, 2, 4, 7 and 9, compound 15 or corticosteroids are administered twice daily on day 7, day 8 and day 9 and once on day 10 in the morning. The mice are sacrificed on day 10 in the afternoon.
In the same experiment, the expression of c-Jun mRNA is determined by northern blot and expressed in percent of the vehicle controls.

[2] = test system: normal mice; experiment: 2-weeks toxicity study in normal mice, intraperitoneal; conditions: daily i.p.
[3] = Pharmacokinetics, daily oral gavage for 14 days in mice; conditions: mouse, in vivo; for AUC / Cmax: oral
Experimental: Daily administration of compound 15 by oral gavage for 14 days in mice: Compound 15 is administered daily by oral gavage as a microsuspension in oil in doses of 30 to 400 mg/kg/day for 14 days in mice.

[4] = test system: skin inflammation induced by Candidin or UV-B; experiment: Clinical phase I trial, skin inflammation induced by candidin or UV-B irradiation; format: in vivo, human
Experimental: Four healthy volunteers participate. Inclusion criteria are: Age above 18 years, male or female. They are informed, with written letter of consent. Exclusion criteria are: Preexistant dermatological diseases, known allergy to test agents.
Inflammation inducing agents: Candidin is administered intradermally (see also D. Poffet, Comparaison entre le pouvoir vaso-constricteur d'un corticoide topique et l'inhibition de la dermite à la candidine après intradermorèaction (IDR). Thèse, Universitè de Genève, 1984). UV-B rays are administered by a UV-B lamp.
Inflammation is measured quantitatively. The area of the inflamed skin is measured in cm^2. The thickness of the skin is monitored by Ultrasound at 20 MHz. Erythema is measured by colorimetric determination employing a Minolta CR 20. […]
All determinations are recorded on a scale from 0 to 4: • 0=no reduction • 1=slight reduction (10 to 20%) • 2=moderate reduction (21 to 40%) • 3=marked reduction (41 to 70%) • 4=very marked reduction (71 to 100%) • Compared to vehicle control.

[5] = Pharmacokinetics, daily oral gavage for 4 weeks in rats; format: in vivo
Experimental: Daily administration of compound 15 by oral gavage for 4 weeks in rats: Compound 15 is administered daily by oral gavage as an oily suspension in doses of 50, 250, 500 and 750 mg/kg/day for 4 weeks in rats. Plasma samples are taken 2 hours post dosing on days 1, 22 and 26 and analysed by a gradient HPLC method with UV detection. […] With the 250 mg/kg/day dosage, plasma levels change from 4945 ng/ml on day 1 to 4190 ng/ml on day 22 and to 4530 ng/ml on day 26. Exposure of the rats to compound 15 results in a dose-proportional way in the doses between 50 and 250 mg/kg/day.

[6] = test system: myeloperoxidase (MPO) activity; experiment: Semi chronic inflammation of mouse ears, MPO activity; format: in vivo, C57BL/6 mice; conditions: 11 d
Experimental: as §1
In the “acute inflammation” test, mice are treated topically (epicutaneously), orally or intraperitoneally, daily for 4 days. In the “semi chronic inflammation” test, mice are treated topically according to the schedules given below. For each experiment, a group of at least 4 mice of both sexes are used in the defined condition, regarding placebo, vehicle control, compound, topical formulation, oral formulation, dosage and concentration. The topical vehicle consists of ethanol/PEG 400/water (3:1:1).
as §2

CCCCOc1c(\C(C)=C/C=C/C(C)=C/C(=O)O)cc(C(C)(C)C)cc1C(C)(C)C [Compound 15, (2E,4E,6Z)-7-[2-butoxy-3,5-bis(1,1-dimethylethyl)phenyl]-3-methyl-2,4,6-octatrienoic acid]
c-Jun mRNA expression (% of vehicle treated mice) [1]: 88 % of vehicle treated mice | Signs or symptoms of hypervitaminosis A [2]: no signs or symptoms of hypervitaminosis A on skin, mucous membranes or bones with the exception of hair loss | Tolerability, intraperitoneal ([2]; doses up to 400 mg/kg): well tolerated | AUC ([3]; 30 mg/kg): 13200 ng·h/mL | Cmax ([3]; 30 mg/kg): 4440 ng/mL | AUC ([3]; 100 mg/kg): 25700 ng·h/mL | Cmax ([3]; 100 mg/kg): 8920 ng/mL | Tmax ([3]; oral gavage 30 to 400 mg/kg/day, 14 days): 0.5 to 2 h | Reduction of the inflammatory reaction compared to vehicle control ([4]; 4 healthy volunteers, topical, candidin or UV-B induced): very marked | Anti-inflammatory effect compared with corticosteroids or macrolides ([4]; topical lotion 1%): even superior to that of corticosteroids or macrolides | Plasma level 2 hours post dosing ([5]; 50 mg/kg/day, day 1): 2205 ng/mL | Plasma level 2 hours post dosing ([5]; 50 mg/kg/day, day 22): 2235 ng/mL | Plasma level 2 hours post dosing ([5]; 50 mg/kg/day, day 26): 2505 ng/mL | Plasma level 2 hours post dosing ([5]; 250 mg/kg/day, day 1): 4945 ng/mL | Plasma level 2 hours post dosing ([5]; 250 mg/kg/day, day 22): 4190 ng/mL | Plasma level 2 hours post dosing ([5]; 250 mg/kg/day, day 26): 4530 ng/mL | MPO activity (% vehicle treated mice) ([6]; At RA 0.05% + test compound 0.05% topical): 184 ± 72 % vehicle treated mice | MPO activity (% vehicle treated mice) ([6]; TPA 0.005% + test compound 0.05% topical): 345 ± 81 % vehicle treated mice
